“Also recorded” adds a separate entry of the source.
What was measured:
[1] = system: SYO-1 human biphasic synovial sarcoma tumor; experiment: SYO-1 xenograft tumor growth in NOD SCID mice; assay type: in vivo; settings: 1 mg/kg, i.p., daily, 3 weeks; FIG. 14
Procedure: Method: NOD SCID mice (Beijing Anikeeper Biotech, Beijing) were inoculated subcutaneously on the right flank with the single cell suspension of SYO-1 human biphasic synovial sarcoma tumor cells (5×106) in 100 μL Dulbecco's Modified Eagle Medium (DMEM) with 10% fetal bovine serum (FBS). The mice were randomized into either control group [10% dimethyl sulfoxide (DMSO), 40% polyethylene glycol (PEG400) and 50% water], or treatment group D1 when the mean tumor size reached about 117 mm^3. Mice were dosed daily through intraperitoneal (i.p.) route over the course of 3 weeks. All dose volumes were adjusted by body weights in terms of mg/kg.

[2] = biological target: T1, BRD9 (Homo sapiens, UniProt Q9H8M2); experiment: BRD9 degradation in synovial sarcoma tumor in vivo, western blot (Example 12); set-up: degradation endogenous BRD9 protein in two synovial sarcoma cell lines; endogenous in cells; host or cells: SYO1 (SYO-1) synovial sarcoma cells; settings: 1 mg/kg, i.p., 4 weeks; tumors 8, 72 and 168 hours post last dose; FIG. 15
T1 sequence (Q9H8M2 1-597): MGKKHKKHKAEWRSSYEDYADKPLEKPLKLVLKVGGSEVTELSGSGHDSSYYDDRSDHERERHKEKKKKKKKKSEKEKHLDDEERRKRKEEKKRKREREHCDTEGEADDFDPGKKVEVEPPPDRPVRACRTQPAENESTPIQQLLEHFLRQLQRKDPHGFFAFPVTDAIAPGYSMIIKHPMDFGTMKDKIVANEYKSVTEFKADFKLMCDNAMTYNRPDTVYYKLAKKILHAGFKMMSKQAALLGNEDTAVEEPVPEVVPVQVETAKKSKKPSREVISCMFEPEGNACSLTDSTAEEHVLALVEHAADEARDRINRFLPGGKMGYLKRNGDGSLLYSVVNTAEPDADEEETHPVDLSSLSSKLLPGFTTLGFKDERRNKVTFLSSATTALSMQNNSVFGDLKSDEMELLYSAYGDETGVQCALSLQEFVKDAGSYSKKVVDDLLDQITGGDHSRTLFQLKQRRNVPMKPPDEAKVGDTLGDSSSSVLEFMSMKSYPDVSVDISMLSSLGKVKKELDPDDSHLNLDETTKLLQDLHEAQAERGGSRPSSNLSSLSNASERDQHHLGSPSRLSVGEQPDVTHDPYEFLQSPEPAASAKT
Procedure: Method: Mice were treated with D1, 1 mg/kg, i.p. for 4 weeks. Mice were then euthanized, and tumors were collected at 8 hours, 72 hours, and 168 hours post last dose. Tumors were lysed with 1× RIPA lysis buffer (Boston BioProducts, BP-115D) with protease and phosphatase protein inhibitor (Roche Applied Science #04906837001 & 05892791001). Equal amounts of lysate (30 μg) were loaded in 4-12% Bis-Tris Midi Protein Gels in 1×MOPS buffer; samples ran at 120 V for 120 minutes. Protein was transferred to membrane with TransBlot at 250 mA for 150 minutes, and then membranes were blocked with Odyssey blocking buffer for 1 hour at room temperature. Membranes were hybridized overnight in cold room with primary antibodies. Images acquired using Li-COR imaging system (Li-COR Biotechnology, Lincoln, Nebr.).

[3] = system: synovial sarcoma cell lines (SYO1, Yamato, HS-SY-II, and ASKA); experiment: Growth of synovial sarcoma cell lines (Example 2: confluency, crystal violet, colonies); assay type: cell-based; settings: FIGS. 4, 5, 6
Procedure: (§1) Cells were treated with DMSO or the BRD9 degrader, Compound 1, at indicated concentrations, and proliferation was monitored from day 7 to day 14 by measuring confluency over time using an IncuCyte live cell analysis system (FIG. 4). Growth medium and compounds were refreshed every 3-4 days.
(§2) Cells were seeded into 12-well plates and treated with DMSO, 1 μM BRD9 inhibitor, Compound 2 (also known as BI-7273, see Martin et al, J Med Chem. 59(10):4462-4475 (2016); see structure of compound 2 below), or 1 μM BRD9 degrader, Compound 1.
(§3) The number of cells was optimized for each cell line. Growth medium and compounds were refreshed every 3-5 days. SYO1, Yamato, A549, 293T and HS-SY-II cells were fixed and stained at day 11. ASKA cells were fixed and stained at day 23. Staining was done by incubation with crystal violet solution (0.5 g Crystal Violet, 27 ml 37% Formaldehyde, 100 mL 10×PBS, 10 mL Methanol, 863 dH20 to 1 L) for 30 min followed by 3× washes with water and drying the plates for at least 24 h at room temperature. Subsequently plates were scanned on an Odyssey CLx Imaging system (FIG. 5).
(§4) Cells were seeded into 96-well ultra-low cluster plate (Costar, #7007) in 200 μL complete media and treated at day 2 with DMSO, Staurosporin, or BRD9 degrader, Compound 1, at indicated doses (FIG. 2C). Media and compounds were changed every 5 d and cell colonies were imaged at day 14.

[4] = system: non-synovial control cancer cell lines (293T, A549, G401); experiment: Growth of non-synovial control cancer cell lines (Example 2); assay type: cell-based; settings: FIGS. 4, 5, 6
Procedure: as §1, §2, §3, §4

[5] = system: synovial sarcoma cell lines (SYO1, HS-SY-II, and ASKA); experiment: Growth of synovial sarcoma cell lines, crystal violet, day 14 (Example 3); assay type: cell-based
Procedure: (§5) Procedure: Cells were seeded into 6-well or 12-well plates and were treated daily with a BRD9 degrader (Compound 1), a bromo-domain BRD9 binder (Compound 2), E3 ligase binder (lenalidomide), DMSO, or staurosporin (positive control for cell killing), at indicated concentrations. The number of cells was optimized for each cell line. Growth media was refreshed every 5 days. By day 14, medium was removed, cells were washed with PBS, and stained using 500 μL of 0.005% (w/v) crystal violet solution in 25% (v/v) methanol for at least 1 hour at room temperature. Subsequently plates were scanned on an Odyssey CLx Imaging system.

[6] = system: non-synovial control cancer cell lines (RD, HCT116, and Calu6); experiment: Growth of non-synovial control cancer cell lines, crystal violet, day 14 (Example 3); assay type: cell-based; settings: FIG. 8
Procedure: as §5

[7] = system: SYO1 cells; experiment: Cell cycle analysis, Click-iT Plus EdU flow cytometry; assay type: cell-based, human; settings: 200 nM or 1 μM, 8 or 13 days; compared to DMSO and lenalidomide
Procedure: (§6) Procedure: SYO1 cells were treated for 8 or 13 days with DMSO, a BRD9 degrader (Compound 1) at 200 nM or 1 μM, or an E3 ligase binder (lenalidomide) at 200 nM. Compounds were refreshed every 5 days. Cell cycle analysis was performed using the Click-iT™ Plus EdU Flow Cytometry Assay (Invitrogen). The apoptosis assay was performed using the Annexin V-FITC Apoptosis Detection Kit (Sigma A9210). Assays were performed according to the manufacturer's protocol.

[8] = system: SYO1 cells; experiment: Apoptosis assay, Annexin V-FITC; assay type: cell-based, human; settings: 8 days; compared to DMSO controls
Procedure: as §6

With `COc1cc(-c2cn(C)c(=O)c3cnc(N4CCC4)cc23)cc(OC)c1CN1CCC(CN2CCC3(CC2)CN(c2ccc4c(c2)C(=O)N(C2CCC(=O)NC2=O)C4)C3)CC1` (racemic) [Compound D1, 3-[6-(7-[[1-([4-[6-(azetidin-1-yl)-2-methyl-1-oxo-2,7-naphthyridin-4-yl]-2,6-dimethoxyphenyl]methyl)piperidin-4-yl]methyl]-2,7-diazaspiro[3.5]nonan-2-yl)-1-oxo-3H-isoindol-2-yl]piperidine-2,6-dione] the tumor growth [1] was “tumor growth inhibition” and the “BRD9 level in tumor” value [2] was “complete degradation of BRD9 target up to 168 hours after dose; also recorded: BRD9 inhibition”.

In the case of `COc1cc(-c2cn(C)c(=O)c3cnccc23)cc(OC)c1CN(C)CC(=O)NCCOCCOCCNc1cccc2c1C(=O)N(C1CCC(=O)NC1=O)C2=O` (stereo not drawn) [Compound 1, dBRD9], the “growth of the cells” value [3] is reported as “inhibition of the growth of the cells”, the “growth of the cells” value [4] is reported as “does not result in inhibition of the growth” and the “growth of the cells” value ([5]; SYO1, HS-SY-II, ASKA, day 14, FIG. 7) is reported as “inhibition of the growth of the cells”. For the same molecule, the “growth inhibition compared with the other treatments” value ([5]; all synovial cell lines) was “most significant growth inhibition”, the “growth of the cells” value [6] was “did not result in inhibition of the growth” and the “numbers of cells in the S-phase of the cell cycle” value [7] was “reduced numbers of cells in the S-phase”. For the same molecule, the “numbers of early- and late-apoptotic cells” value [8] was “increased numbers of early- and late-apoptotic cells”.
